Patent US9365522B2, “Pyrazole amide derivative” (AMGEN INC., priority 2015, dated 2016)

Biological target: T1, ligand binding domain of human ROR gamma (Homo sapiens, UniProt P51449)
T1 construct: NM_001001523; expressed in transfected cells; host or cells: HEK293T
T1 sequence (P51449 247-497 isoform P51449-2): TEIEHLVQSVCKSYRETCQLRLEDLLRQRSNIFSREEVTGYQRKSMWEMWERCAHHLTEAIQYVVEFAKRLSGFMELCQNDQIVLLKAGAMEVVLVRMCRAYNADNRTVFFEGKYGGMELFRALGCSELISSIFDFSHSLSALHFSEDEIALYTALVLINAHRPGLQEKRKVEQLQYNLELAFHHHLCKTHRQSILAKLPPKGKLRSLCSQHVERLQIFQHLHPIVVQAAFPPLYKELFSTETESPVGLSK
Test: ROR gamma reporter gene assay (GAL4-RORγ LBD luciferase, Dual-Glo)
Format: cell-based
Details: HEK293T cells transfected with pM-ROR gamma, 8 concentrations 3.5 nM to 10.5 μM, 24 h incubation; read-out: result (pIC50, inhibition of RORγ transcriptional activity) (converted)
In short: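 HEK293T cells were co-transfected with GAL4 DBD fused to human RORγ LBD (aa 247-497), a 5×UAS firefly luciferase reporter and CMV-driven renilla luciferase, in medium with 10% charcoal-stripped FBS.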

Compound | IC50 [pM]
CC1(CN(CC(=O)c2c(Cl)cncc2Cl)C(=O)c2cnn([C@H]3CC[C@H](C(=O)O)CC3)c2C(F)(F)F)CCCCC1 [Example 102, trans-4-(4-((2-(3,5-dichloropyridin-4-yl)-2-oxoethyl)-((1-methylcyclohexyl)methyl)carbamoyl)-5-(trifluoromethyl)pyrazol-1-yl)cyclohexane-1-carboxylic acid] | 74100
O=C(CN(Cc1ccccn1)C(=O)c1cnn([C@H]2CC[C@H](C(=O)O)CC2)c1C(F)(F)F)c1c(Cl)cncc1Cl [Example 103, trans-4-(4-((2-(3,5-dichloropyridin-4-yl)-2-oxoethyl)-(pyridin-2-ylmethyl)carbamoyl)-5-(trifluorornethyl)pyrazol-1-yl)cyclohexane-1-carboxylic acid] | 1.91e+06
O=C(CN(Cc1cccnc1)C(=O)c1cnn([C@H]2CC[C@H](C(=O)O)CC2)c1C(F)(F)F)c1c(Cl)cncc1Cl [Example 104, trans-4-(4-((2-(3,5-dichloropyridin-4-yl)-2-oxoethyl)-(pyridin-3-ylmethyl)carbamoyl)-5-(trifluorornethyl)pyrazol-1-yl)cyclohexane-1-carboxylic acid] | 2.04e+06
O=C(CN(Cc1ccc(F)cc1)C(=O)c1cnn([C@H]2CC[C@](O)(C(=O)O)CC2)c1C(F)(F)F)c1c(Cl)cncc1Cl [Example 105, cis-4-(4-((2-(3,5-dichloropyridin-4-yl)-2-oxoethyl)-((4-fluorophenyl)methyl)carbamoyl)-5-(trifluoromethyl)pyrazol-1-yl)-1-hydroxycyclohexane-1-carboxylic acid] | 204000
O=C(CN(Cc1ccc(F)cc1)C(=O)c1cnn([C@H]2CC[C@@](O)(C(=O)O)CC2)c1C(F)(F)F)c1c(Cl)cncc1Cl [Example 106, trans-4-(4-((2-(3,5-dichloropyridin-4-yl)-2-oxoethyl)-((4-fluorophenyl)methyl)carbamoyl)-5-(trifluoromethyl)pyrazol-1-yl)-1-hydroxycyclohexane-1-carboxylic acid] | 380000
O=C(CN(Cc1cc(F)cc(F)c1)C(=O)c1cnn([C@H]2CC[C@H](C(=O)O)CC2)c1C(F)(F)F)c1cc(Cl)ccc1Cl [Example 107, trans-4-(4-((2-(2,5-dichlorophenyl)-2-oxoethyl)-((3,5-difluorophenyl)methyl)carbamoyl)-5-(trifluoromethyl)pyrazol-1-yl)cyclohexane-1-carboxylic acid] | 2.82e+06
CC(CN(Cc1cc(F)cc(F)c1)C(=O)c1cnn([C@H]2CC[C@H](C(=O)O)CC2)c1C(F)(F)F)c1c(Cl)cccc1Cl (stereo partly drawn) [Example 108, trans-4-(4-(2-(2,6-dichlorophenyl)propyl-((3,5-difluorophenyl)methyl)carbamoyl)-5-(trifluoromethyl)pyrazol-1-yl)cyclohexane-1-carboxylic acid] | 324000
COC(CN(Cc1cc(F)cc(F)c1)C(=O)c1cnn([C@H]2CC[C@H](C(=O)O)CC2)c1C(F)(F)F)c1c(Cl)cncc1Cl (stereo partly drawn) [Example 109, trans-4-(4-((2-(3,5-dichloropyridin-4-yl)-2-methoxyethyl)-((3,5-difluorophenyl)methyl)carbamoyl)-5-(trifluoromethyl)pyrazol-1-yl)cyclohexane-1-carboxylic acid] | 631000
CC(C)(C)C#CCN(CC(=O)c1c(Cl)cncc1Cl)C(=O)c1cnn([C@H]2CC[C@H](C(=O)O)CC2)c1C(F)(F)F [Example 110, trans-4-(4-((2-(3,5-dichloropyridin-4-yl)-2-oxoethyl)-(4,4-dimethylpent-2-ynyl)carbamoyl)-5-(trifluoromethyl)pyrazol-1-yl)cyclohexane-1-carboxylic acid] | 162000
COc1cccc(OC)c1C(=O)CN(Cc1cc(F)cc(F)c1)C(=O)c1cnn([C@H]2CC[C@H](C(=O)O)CC2)c1C(F)(F)F [Example 111, trans-4-(4-((3,5-difluorophenyl)methyl-(2-(2,6-dimethoxyphenyl)-2-oxoethyl)carbamoyl)-5-(trifluoromethyl)pyrazol-1-yl)cyclohexane-1-carboxylic acid] | 355000
COc1cc(Cl)cc(Cl)c1C(=O)CN(Cc1cc(F)cc(F)c1)C(=O)c1cnn([C@H]2CC[C@H](C(=O)O)CC2)c1C(F)(F)F [Example 112, trans-4-(4-((2-(2,4-dichloro-6-methoxyphenyl)-2-oxoethyl)-((3,5-difluorophenyl)methyl)carbamoyl)-5-(trifluoromethyl)pyrazol-1-yl)cyclohexane-1-carboxylic acid] | 61700
O=C(CN(Cc1cc(F)cc(F)c1)C(=O)c1cnn([C@H]2CC[C@H](C(=O)O)CC2)c1C(F)(F)F)C1CCCC1 [Example 113, trans-4-(4-((2-cyclopentyl-2-oxoethyl)-((3,5-difluorophenyl)methyl)carbamoyl)-5-(trifluoromethyl)pyrazol-1-yl)cyclohexane-1-carboxylic acid] | 4.57e+06
C[C@H](N(CC(=O)c1c(Cl)cncc1Cl)C(=O)c1cnn([C@H]2CC[C@H](C(=O)O)CC2)c1C(F)(F)F)C(C)(C)C [Example 114, trans-4-(4-((2-(3,5-dichloropyridin-4-yl)-2-oxoethyl)-((2S)-3,3-dimethylbutan-2-yl)carbamoyl)-5-(trifluoromethyl)pyrazol-1-yl)cyclohexane-1-carboxylic acid] | 2.29e+06
C[C@@H](N(CC(=O)c1c(Cl)cncc1Cl)C(=O)c1cnn([C@H]2CC[C@H](C(=O)O)CC2)c1C(F)(F)F)C(C)(C)C [Example 115, trans-4-(4-((2-(3,5-dichloropyridin-4-yl)-2-oxoethyl)-((2R)-3,3-dimethylbutan-2-yl)carbamoyl)-5-(trifluoromethyl)pyrazol-1-yl)cyclohexane-1-carboxylic acid] | 158000
N[C@]1(C(=O)O)CC[C@@H](n2ncc(C(=O)N(CC(=O)c3c(Cl)cncc3Cl)Cc3ccc(F)cc3)c2C(F)(F)F)CC1 [Example 116, cis-4-(4-((2-(3,5-dichloropyridin-4-yl)-2-oxoethyl)-((4-fluorophenyl)methyl)carbamoyl)-5-(trifluoromethyl)pyrazol-1-yl)-1-aminocyclohexane-1-carboxylic acid] | > 1e+07
N[C@]1(C(=O)O)CC[C@H](n2ncc(C(=O)N(CC(=O)c3c(Cl)cncc3Cl)Cc3ccc(F)cc3)c2C(F)(F)F)CC1 [Example 117, cis-4-(4-((2-(3,5-dichloropyridin-4-yl)-2-oxoethyl)-((4-fluorophenyl)methyl)carbamoyl)-5-(trifluoromethyl)pyrazol-1-yl)-1-aminocyclohexane-1-carboxylic acid] | 3.55e+06
CC(C)(CN(Cc1cc(F)cc(F)c1)C(=O)c1cnn([C@H]2CC[C@H](C(=O)O)CC2)c1C(F)(F)F)c1c(Cl)cccc1Cl [Example 118, trans-4-(4-((2-(2,6-dichlorophenyl)-2-methylpropyl)-((3,5-difluorophenyl)methyl)carbamoyl)-5-(trifluoromethyl)pyrazol-1-yl)cyclohexane-1-carboxylic acid] | 1.74e+06
COc1cncc(OC)c1C(=O)CN(Cc1cc(F)cc(F)c1)C(=O)c1cnn([C@H]2CC[C@H](C(=O)O)CC2)c1C(F)(F)F [Example 119, trans-4-(4-((3,5-difluorophenyl)methyl-(2-(3,5-dimethoxypyridin-4-yl)-2-oxoethyl)carbamoyl)-5-(trifluoromethyl)pyrazol-1-yl)cyclohexane-1-carboxylic acid] | 1.51e+06
O=C(CN(CC1CCCCN1)C(=O)c1cnn([C@H]2CC[C@H](C(=O)O)CC2)c1C(F)(F)F)c1c(Cl)cncc1Cl (stereo partly drawn) [Example 121, trans-4-(4-((2-(3,5-dichloropyridin-4-yl)-2-oxoethyl)-(piperidin-2-ylmethyl)carbamoyl)-5-(trifluoromethyl)pyrazol-1-yl)cyclohexane-1-carboxylic acid] | > 1e+07
Cc1cc(=O)[nH]c(C)c1C(=O)CN(Cc1cc(F)cc(F)c1)C(=O)c1cnn([C@H]2CC[C@H](C(=O)O)CC2)c1C(F)(F)F [Example 122, trans-4-(4-((3,5-difluorophenyl)methyl-(2-(2,4-dimethyl-6-oxo-1H-pyridin-3-yl)-2-oxoethyl)carbamoyl)-5-(trifluoromethyl)pyrazol-1-yl)cyclohexane-1-carboxylic acid] | > 1e+07
O=C(CN(CC12CC3CC(CC(C3)C1)C2)C(=O)c1cnn([C@H]2CC[C@H](C(=O)O)CC2)c1C(F)(F)F)c1c(Cl)cncc1Cl [Example 123, trans-4-(4-(1-adamantylmethyl-(2-(3,5-dichloropyridin-4-yl)-2-oxoethyl)carbamoyl)-5-(trifluoromethyl)pyrazol-1-yl)cyclohexane-1-carboxylic acid] | 4900
CC(C)(C)[C@H]1C[C@H](CN(CC(=O)c2c(Cl)cncc2Cl)C(=O)c2cnn([C@H]3CC[C@H](C(=O)O)CC3)c2C(F)(F)F)C1 [Example 125, trans-4-(4-((3-tert-butylcyclobutyl)methyl-(2-(3,5-dichloropyridin-4-yl)-2-oxoethyl)carbamoyl)-5-(trifluoromethyl)pyrazol-1-yl)cyclohexane-1-carboxylic acid] | 324000
CC(C)(C)[C@H]1C[C@@H](CN(CC(=O)c2c(Cl)cncc2Cl)C(=O)c2cnn([C@H]3CC[C@H](C(=O)O)CC3)c2C(F)(F)F)C1 [Example 126, trans-4-(4-((3-tert-butylcyclobutyl)methyl-(2-(3,5-dichloropyridin-4-yl)-2-oxoethyl)carbamoyl)-5-(trifluoromethyl)pyrazol-1-yl)cyclohexane-1-carboxylic acid] | 912000
